Measurements as given in publication PMC10010313, “A Phase I Study of Pelabresib (CPI-0610), a Small-Molecule Inhibitor of BET Proteins, in Patients with Relapsed or Refractory Lymphoma” (Cancer Research Communications, 2022).
Values joined by “and” are separate entries in the source; they are usually repeats but may differ in a detail not shown here. Identical values can stand only once. Like-named read-outs stand apart in the source and are kept apart here.

What was measured:
MYC = test system: MYC; set-up: method as in PMID 21949397; details: cited from earlier work
[1] = test system: patients with relapsed or refractory lymphoma; assay: Dose-limiting toxicities / MTD determination (3 + 3 dose escalation); type: in vivo
Description: (§1) Pelabresib was administered once daily (QD) for 14 days followed by a 7-day break, in continuous 21-day cycles to prevent/ameliorate thrombocytopenia. Cohorts of 3 to 6 patients were sequentially enrolled with increasing doses of pelabresib (6, 12, 24, 48, 80, 120, 170, 230, and 300 mg with the capsule formulation and 125 mg and 225 mg with the micronized tablet formulation) until the MTD was determined. Pelabresib was administered under fasting conditions (no food intake 2 hours before until 1 hour after study drug administration).
(§2) The primary objective of the study was to determine the MTD of pelabresib with characterization of dose-limiting toxicities (DLT) as a primary endpoint. Secondary objectives included adverse events (AE) and serious adverse events (SAE); tumor response according to 2007 Revised Response Criteria for Malignant Lymphoma ([13]); plasma concentration of pelabresib; PK parameters; changes in expression of MYC and other genes sensitive to BET inhibition; and changes in levels of selected mRNAs that are expressed in PBMCs and are sensitive to BET inhibition.
(§3) The MTD of pelabresib was defined as the highest dose that could be given without causing DLT in 33% or more of the patients treated at that dose (capsules or tablets). Dose-escalation followed a traditional “3 + 3” design based on the frequency of DLT. All patients who were treated with at least 1 dose of pelabresib were included in the Safety Population and used for all tabulations of demographic information, baseline characteristics, safety, PK, pharmacodynamic, and efficacy analyses.

NF-κB signaling = details: preclinical studies; cited from earlier work
[2] = set-up: method as in PMID 21949397; details: cited from earlier work
[3] = crystalline form of pelabresib; cited from earlier work
[4] = test system: IL8 and CCR1 gene expression; assay: PK/PD analysis of maximum gene suppression versus exposure (Emax model); type: in vivo, human
Description: To further explore the relationship between pelabresib exposure and suppression of gene expression, individual maximum gene suppression (the nadir of individual gene expression versus time profiles) was plotted as a continuous function of individual Cmax and AUC for both CCR1 and IL8. […] In total, based on this analysis, pharmacodynamic responses of at least 50% suppression in gene expression are evident at AUC and Cmax as low as 4,000 ng/hr/mL and 500 ng/mL, respectively. These exposures were achieved on average at capsule doses of 80 mg and above and were exceeded at both tablet doses.

[5] = test system: patients with relapsed or refractory lymphoma; assay: Treatment-emergent adverse events, phase 1 study 0610–01; type: in vivo
Description: Study 0610–01 was a first-in-human phase 1, multi-center, open-label, dose-escalation study of pelabresib (CPI-0610) in patients with relapsed or refractory lymphoma (NCT01949883).
Eligible patients for treatment with pelabresib were adults with relapsed non-Hodgkin or Hodgkin lymphoma after at least one prior therapy or who were not eligible for high-dose chemotherapy and autologous stem cell transplantation or had refused high-dose chemotherapy and autologous stem cell transplantation. Patients were required to have platelet count ≥75 × 10^9/L, absolute neutrophil count ≥1.0 × 10^9/L, and Eastern Cooperative Oncology Group performance status of 2 or less.
as §1, §2, §3

[6] = human, in vivo
Description: (§5) To characterize the plasma PK of pelabresib for the first dose and at steady state for multiple dosing, blood samples were taken before and at 0.5, 1, 1.5, 2, 3, 4, 6, 8, and 24 hours after the initial dose; before dosing on Day 8; before and at 0.5, 1, 1.5, 2, 3, 4, 6, 8, 24, 48, 72, 96, and 120 hours after the Day 14 dose; and prior to dosing on Day 1 of Cycle 2. Blood samples were centrifuged within 30 minutes of collection to harvest the plasma which was promptly stored in cryovials maintained at −80°C. The concentration of CPI-0610 in plasma samples was determined by reverse-phase high performance liquid chromatography with tandem mass spectrometric detection. The assay was validated and applied to the analysis of study samples according to the recommendations in the current FDA guidance. At the lowest concentration included in the calibration curves, which was 0.25 ng/mL, interday accuracy was within 0.3% of the nominal concentration and the precision was 3.0%. Interday accuracy ranged from 99.9 to 101.2% and the precision ranged from 4.0 to 6.0% for all other calibration standards. Actual time points were calculated as the difference between the blood sample collection time and the time that the drug was taken. The plasma concentration–time data were analyzed by noncompartmental methods using WinNonlin version 5.0.1 (Pharsight Corp). Area under the plasma concentration–time curve from the time of dosing to the time of last sample collected prior to administration of the next dose (AUC0–24) was estimated using the linear-log trapezoidal method. Apparent oral clearance (CL/F) was calculated as the dose divided by the AUC0–24 for the dose given on Day 14. Pharmacokinetic parameters are reported as the geometric mean [geometric coefficient of variation (CV%)] of the values for individual patients at each dose level unless otherwise indicated.

platelet count = assay: Platelet count values versus pelabresib dose; type: in vivo, human; details: QD 14 days on, 7 days off
Description: To accommodate for different baseline platelet count values in different patients, changes in platelet count values were expressed as a fraction or ratio of the baseline value. There was a strong correlation between the Day 14:Day 1 platelet count ratio and pelabresib dose (R^2 = 0.81).

[7] = Plasma pharmacokinetics (LC-MS/MS, noncompartmental)
Description: as §5

IL8 = IL8 mRNA expression in patient whole blood (qPCR); type: in vivo, human
Description: (§4) Whole (peripheral) blood samples were also collected at selected time points that coincided with PK sampling. Blood from patients was drawn into PAXgene blood RNA tubes (Becton Dickinson) at the clinical sites and shipped frozen to the Massachusetts General Hospital (MGH, Boston, MA) for processing. RNA was purified using a PAXgene Blood RNA Kit IVD (Qiagen) according to the manufacturer's protocol and quantitated using a Nanodrop 8000 (Thermo Scientific). RNA isolated from PBMCs was used to synthesize cDNA for qPCR analysis and gene expression was assessed by qPCR using a CCR1 or IL8 TaqMan assay. Housekeeping genes were assessed using B2M TaqMan assay, PPIB Universal Probe Library (UPL) or TaqMan assay. Relative gene expression for CCR1 and IL8 was determined after normalization to the geometric mean of the two housekeeping genes (B2M and PPIB).

CCR1 = CCR1 mRNA expression in patient whole blood (qPCR); type: in vivo, human
Description: as §4

clinical = details: human, in vivo
Description: as §5

[8] = test system: ABC- diffuse large B-cell lymphoma (DLBCL) and Burkitt lymphoma (BL) cell lines; details: preclinical studies; cited from earlier work
[9] = test system: relapsed or refractory lymphoma; assay: Tumor response, 2007 Revised Response Criteria for Malignant Lymphoma; type: in vivo, human
Description: as §2, §3

[10] = individual maximum gene suppression, inhibitory Emax model
[11] = including both tablet dose levels
[12] = whole blood, 2, 6 and 8 hours after administration

In the case of Cc1noc2c1-c1ccccc1C(c1ccc(Cl)cc1)=N[C@H]2CC(N)=O [pelabresib], the “Time by which MYC expression had returned to its baseline value” (MYC; single 30 mg/kg oral dose ref 11) is listed as ≤ 12 h, the “Maximum inhibition of MYC expression in tumor tissue” value (MYC; single 30 mg/kg oral dose, 4 hours postdosing, immunodeficient mice ref 11) is listed as 75% and the “Time of maximum inhibition of MYC expression” value (MYC; single 30 mg/kg oral dose, earliest postdosing time point assessed ref 11) is listed as 4 h. The “Recommended phase 2 dose (RP2D)” value ([1]; human, in vivo, 14 days) was 125 mg, the “DLTs: gastrointestinal (GI) events” value ([1]; human, in vivo, 21 days) was 2 and the “DLTs: hematologic events” value ([1]; human, in vivo, 21 days) was 5. The “DLTs: rash” value ([1]; human, in vivo, 21 days) was 1, the “Total DLT events considered for dose-escalation” value ([1]; human, in vivo, 21 days) was 8 and the MTD ([1]; tablet, QD for 14 days with a 7-day break) was 225 mg. For the same molecule, the “Effect on NF-κB signaling activity” value (NF-κB signaling) was “downregulation”, the Clearance in mice [2] was “rapid clearance” and the Aqueous solubility [3] was “low”. The “Capsule doses at which these exposures (AUC 4,000, Cmax 500) were achieved on average” value ([4]; exceeded at both tablet doses) was ≥ 80 mg, the “AUC at which at least 50% suppression in gene expression is evident” value [4, 10] was ≥ 4,000 ng/hr/mL and the “Cmax at which at least 50% suppression in gene expression is evident” value [4, 10] was ≥ 500 ng/mL. The “Patients who died while on study” value ([5]; cause disease progression, none considered related to the investigational product) was 9 (14.1%) patients (%), the SAE disease progression ([5]; grade 5) was 7 patients and the “Anemia of Grade 3 or higher” value ([5]; human, in vivo) was 7 (10.9%) patients (%). For the same molecule, the “Diarrhea of Grade 3 or higher” value ([5]; human, in vivo) was 4 (6.3%) patients (%), the “Gastrointestinal TEAEs” value ([5]; human, in vivo) was 43 (67.2%) patients (%) and the “Patients with at least 1 TEAE” value ([5]; human, in vivo) was 64 patients. The “Patients with at least 1 TEAE of Grade 3 or higher intensity” value ([5]; human, in vivo) was 44 (68.8%) patients (%), the SAE diarrhea ([5]; human, in vivo) was 4 patients and the SAE disease progression ([5]; human, in vivo) was 1 patient. For the same molecule, the SAE pain ([5]; human, in vivo) was 2 patients, the SAE pneumonia ([5]; human, in vivo) was 2 patients and the “TEAE Anemia” value ([5]; human, in vivo) was 16 (25.0) n (%). For the same molecule, the “TEAE Decreased appetite” value ([5]; human, in vivo) was 17 (26.6) n (%), the “TEAE Diarrhea” value ([5]; human, in vivo) was 12 (18.8) n (%) and the “TEAE Dysgeusia” value ([5]; human, in vivo) was 10 (15.6) n (%). For the same molecule, the “TEAE Fatigue” value ([5]; human, in vivo) was 23 (35.9) n (%), the “TEAE Hyperglycemia” value ([5]; human, in vivo) was 12 (18.8) n (%) and the “TEAE Lymphopenia” value ([5]; human, in vivo) was 13 (20.3) n (%). The “TEAE Nausea” value ([5]; human, in vivo) was 18 (28.1) n (%), the “TEAE Thrombocytopenia events” value ([5]; human, in vivo) was 29 (45.3) n (%) and the “TEAE Vomiting” value ([5]; human, in vivo) was 13 (20.3) n (%). The “TEAEs that led to treatment discontinuation” value ([5]; human, in vivo) was 9 (14.1%) patients (%), the “Thrombocytopenia events of Grade 3 or higher” value ([5]; human, in vivo) was 13 (20.3%) patients (%) and the “Treatment-emergent SAEs” value ([5]; human, in vivo) was 27 (42.2%) patients (%). For the same molecule, the “Factor to convert tablet doses to capsule doses” value [6] was 1.34, the “Range of time of peak plasma concentrations” value [6] was 0.9 to 7.9 h and the “Mean AUC0–24” value ([6]; 225 mg) was 20,700 ng/h/mL. For the same molecule, the Accumulation at most ([6]; 14 days) was ≤ 40%, the “Accumulation, mean (±SD)” value ([6]; 14 days) was 4.3 ± 1.0% and the “Character of decreases in platelet count values” (platelet count) was “dose dependent, reversible, and non-cumulative”. For the same molecule, the “Accumulation, mean (±SD)” value ([7]; capsule formulation, 14 days of continuous QD dosing) was 20.5 ± 7.2%, the half-life ([7]; human, plasma, oral, Terminal half-life, geometric mean (geometric CV), capsule) was 11.6 h and the “Tablet dose approximately corresponding to the 120 mg capsule dose level” value ([7]; in vivo) was ~75 mg. For the same molecule, the “Apparent oral clearance, geometric mean (geometric CV)” value ([7]; tablet dosage form, Day 14) was 12.3 (27.2%) L/h, the “Dose level with maximum reduction of IL8 expression” value (IL8; capsule) was 120 mg and the “Capsule doses at whose exposures suppression of IL8 was much more apparent” value (IL8; [11]) was “greater than or equal to 120 mg”. The “Earliest time of decreased IL8 expression postdose” value (IL8; whole blood) was ≤ 2 h, the “Capsule dose above which appreciable changes in expression of IL8 were shown” value (IL8; [12]) was “above 120 mg” and the “Capsule doses at whose exposures suppression of CCR1 was much more apparent” value (CCR1; [11]) was ≥ 170 mg. For the same molecule, the “Earliest time of decreased CCR1 expression postdose” value (CCR1; whole blood) was ≤ 2 h, the “Capsule dose above which appreciable changes in expression of CCR1 were shown” value (CCR1; [12]) was > 170 mg and the Cmax (clinical; 225 mg) was 2020 ng/mL. For the same molecule, the bioavailability (clinical; Exposure (bioavailability) of tablet greater than capsule) was 60%, the half-life (clinical; Half-life (mean apparent terminal phase)) was ~15 h and the Tmax (clinical; Median time of peak plasma concentrations) was 1.9 h. The Tmax (clinical; Median time to maximum plasma concentrations) was 2 h, the Tmax (clinical; Range of time of peak plasma concentrations) was 0.5 to 7.4 h and the half-life (clinical; Terminal half-life, geometric mean (geometric CV)) was 15.3 h. The Effect on viability [8] was “loss of viability”, the “Overall response rate (CR + PR)” value ([9]; 4 of 64 patients) was 6.2% and the “Patients with prolonged (>6 months) stable disease” value ([9]; 64 patients) was 5 patients. The “Best overall response CR” value ([9]; Overall N = 64) was 2 (3.1%) n (%) and 2 (3.1) n (%), the “Best overall response PR” value ([9]; Overall N = 64) was 2 (3.1%) n (%) and 2 (3.1) n (%) and the “Best overall response SD” value ([9]; Overall N = 64) was 21 (32.8%) n (%) and 21 (32.8) n (%). For the same molecule, the “Overall response rate (CR + PR)” value ([9]; Overall N = 64, all doses and formulations) was 4 (6.2) n (%), the “Lowest dose at which complete remission was achieved” value ([9]; QD capsule) was 48 mg and the “Median duration of response (CR or PR), (range)” value ([9]; patients with CR or PR) was 8.4 (6.1–46.1) weeks. For the same molecule, the “Time to treatment (CR or PR)” value ([9]; patients with CR or PR) was 4–18 cycles and the “Time to response (CR or PR)” value ([9]; patients with CR or PR, 21-day cycles) was 2–6 cycles.
